One test relates to BaF3_EGFR d19/CS cells. In words: Biological Activity Assay D: BaF3 cell proliferation assay, EGFR exon 19 deletion/C797S (BaF3 d19/CS). The format is cell-based. The settings on record: Ba/F3 EGFR, read-out: BaF3 d19/CS IC50. On the procedure: (§1) One frozen vial of cells should be thawed into one T25 flask in 10 mL media. Keep the flask upright in the incubator.
(§2) Method: One frozen vial of cells was thawed into one T25 flask in 10 mL media and the flask was kept upright in the incubator. Cells were split 1:10 every two to three days when cells reached confluency of around 1×10^6 cells/mL. Bravo protocol files were used with Greiner 384-well plates for all steps of compound preparation, cell plating and compound addition. […] 16 μL of DMSO were added (for compounds starting at 20 μM) or 28 μL DMSO (for compounds starting at 5 μM) to 96-well V-bottom polypropylene plate: wells 1A-1H (8 compounds/plate). […] 20 μL DMSO were added to the remainder of the wells (columns 2-12) in the 96-well V-bottom plate. A Bravo liquid handler was used to make 1:3 serial dilutions from columns 1 to 11 (12 remains as DMSO only) to prepare the DMSO dilution plate. 144 μL media were added to each well of a new 96-well V-bottom polypropylene plate to prepare the intermediate dilution plate. A Bravo or 96-head Integra liquid handler was used to add and mix 6 μL of test compound from the DMSO dilution plate to the intermediate dilution plate. (1:25 dilution). Cells were transferred from a flask into a 50 mL conical, vortex gently and the number of cells were counted, with a target cell number of about 1×10^6 cells per mL. The cells were diluted in culture medium in 50 mL conical or T25 flask, and the cell suspension was added to BRAVO reservoir and then use Bravo protocol to plate the appropriate number of cells shown below in 36 μl of medium per well as follows: Ba/F3-WT-EGFR 2000 cells per well of a 384 well plate; Ba/F3-LR/CS-EGFR 2000 cells per well of a 384 well plate; and Ba/F3-d19/CS-EGFR 1500 cells per well of a 384 well plate. An extra 10 mL of dead volume was utilized in each reservoir.
(§3) Using a Bravo liquid handler, 4 μl of test compound solution was added per well from the intermediate dilution plate to plated cells (1:10 dilution from the intermediate plate, final compound dilution 1:250 and final DMSO concentration per well is 0.4%). Using the 96 BRAVO Head, 25 μl were aspirated from the intermediate dilution plate and 4 μl each were dispensed into 4 wells (square pattern) in the 384-well plate. Any remaining test compound is dispensed into a secondary plate to prevent cross contamination of cells in the intermediate compound plate. After the compounds were added, the plate was shaken at 600 rpm gently for 60 see, and the plates were incubated in a tissue culture incubator, 37° C., 5% CO2, for ˜ 72 hours. After incubation, CTG 2.0 reagent was allowed to equilibrate to room temperature (˜3 hours) and cells to reach room temperature (˜10-15 minutes) and reagent was added to cells (40 μL/well) using a Bravo liquid handler. The plates were shaken to allow proper mixing (˜5 min) and let settle for 10 minutes and were read on Tecan plate reader using the appropriate luminescence method. Data from plate reader was transferred to an excel file and entered directly into Dotmatics using the protocols under EGFR Project/Cell Proliferation/named: “BaF3_EGFRwt_CP”, “BaF3_EGFR_d19/CS_CP”, “BaF3_EGFR_LR/CS_CP”. Curves were fit with a 4-parameter model and IC50s calculated by the Dotmatics software. DMSO wells were averaged to define the high control (100% growth). The average of the highest concentration of the positive control compound (afatinib) was used to define the 0% growth and used to lock the bottom of the curves. The tops of the curves were not fixed.

Test [1] has as its target recombinant human EGFR exon 19 deletion/C797S double mutant protein (Homo sapiens (Human), UniProt P00533, C797S/DEL746-750). The experiment in a line: Biological Activity Assay C: biochemical assay against EGFR exon 19 deletion/C797S protein (EGFR d19/CS). On the procedure:
In Row A of a 384-well polypropylene plate, was added 48 μL of DMSO. In wells A1 and A24, were added 12 μL of DMSO. […] To a well in Row A were added 12 μL of each 10 mM test compound stock (100% DMSO). […] The final intermediate dilution plate contained 4×16-point compound serial dilutions in assay buffer. The DMSO concentration was 10%. The intermediate compound dilution plate was transferred to the Bravo and the “5 uL dispense into ARP.pro” protocol was run. To the black low volume assay ready plates, were added 5 μL of 40 uM Phosphosens peptide sensor/4 mM ATP working solution to each well. […] To column 24, was added 10 μL of assay buffer. The final DMSO concentration was 2.5%. […] The plates were sealed with the TopSeal-A Plus plate seals. […] Set for 90 cycles with 120 second interval. […] The slope of each curve was constructed using Dotmatics in each well, and each IC50s was calculated using a 4-parameter fit model.

In the next test the test system is BaF3_EGFR LR/CS cells. The experiment in a line: Biological Activity Assay D: BaF3 cell proliferation assay, EGFR L858R/C797S mutant (BaF3 LR/CS). In kind it is cell-based. The settings on record: Ba/F3 EGFR, read-out: BaF3 LR/CS IC50. On the procedure: as §1, §2, §3
The subject of a further test is Ba/F3_EGFR WT cells. The experiment in a line: Biological Activity Assay D: BaF3 cell proliferation assay, EGFR wild-type (BaF3 WT). In kind it is cell-based. The settings on record: Ba/F3 EGFR, read-out: BaF3 WT IC50. The method, then: as §1, §2, §3
[2] abbreviates: BaF3_EGFR d19/CS cells, ~72 hours, CellTiter-Glo.
Setting [3] is: BaF3_EGFR LR/CS cells, ~72 hours, CellTiter-Glo.
[4] abbreviates: Ba/F3_EGFR WT cells, ~72 hours, CellTiter-Glo.

Like-named read-outs stand apart in the source and are kept apart here. Where only a bound is given, the exact number is not on record here.

recombinant human EGFR exon 19 deletion/C797S double mutant protein, sequence (P00533 other isoform, or with tags, fused parts or gaps C797S/del 1-668/del 746-750 limits assumed): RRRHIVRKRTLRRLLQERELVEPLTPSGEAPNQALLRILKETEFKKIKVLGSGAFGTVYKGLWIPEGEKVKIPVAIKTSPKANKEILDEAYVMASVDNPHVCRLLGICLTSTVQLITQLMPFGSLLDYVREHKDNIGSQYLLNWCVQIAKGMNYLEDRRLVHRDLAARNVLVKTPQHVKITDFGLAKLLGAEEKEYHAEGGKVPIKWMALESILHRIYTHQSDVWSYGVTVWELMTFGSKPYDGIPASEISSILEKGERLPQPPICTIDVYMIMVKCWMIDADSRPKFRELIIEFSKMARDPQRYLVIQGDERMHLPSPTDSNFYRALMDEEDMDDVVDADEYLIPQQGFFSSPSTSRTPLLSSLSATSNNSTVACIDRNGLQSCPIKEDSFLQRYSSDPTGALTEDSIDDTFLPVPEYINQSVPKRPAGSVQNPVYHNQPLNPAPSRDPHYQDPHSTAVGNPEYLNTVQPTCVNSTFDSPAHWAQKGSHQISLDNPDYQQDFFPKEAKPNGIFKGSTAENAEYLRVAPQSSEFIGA

On to `Fc1ccc(-c2nn(C3CCCOC3)cc2-c2ncnc3oc(-c4ccccc4)cc23)cc1` (racemic) [Example 122, 4-(3-(4-Fluorophenyl)-1-(tetrahydro-2H-pyran-3-yl)-1H-pyrazol-4-yl)-6-phenylfuro[2,3-d]pyrimidine], for which the IC50 with BaF3_EGFR d19/CS cells (setting [2]) was 0.114 µM; in test [1] it was 0.00055 µM; in the test on BaF3_EGFR LR/CS cells (setting [3]), 0.068 µM; in the test with Ba/F3_EGFR WT cells (setting [4]) it was 1.85 µM.

For `Fc1ccc(-c2nn([C@H]3CCOC[C@@H]3F)cc2-c2ncnc3oc(-c4ccccc4)cc23)cc1` (racemic) [Example 151, 4-[1-(3-fluorooxan-4-yl)-3-(4-fluorophenyl)-1H-pyrazol-4-yl]-6-phenylfuro[2,3-d]pyrimidine], the IC50 was found to be 0.0681 µM in the test with BaF3_EGFR d19/CS cells (setting [2]), 0.00145 µM in test [1], 0.0161 µM in the test with BaF3_EGFR LR/CS cells (setting [3]) and 1.87 µM in the test on Ba/F3_EGFR WT cells (setting [4]).

In the case of `Fc1ccc(-c2nn([C@H]3CCOC[C@H]3F)cc2-c2ncnc3oc(-c4ccccc4)cc23)cc1` (racemic) [Example 184, 4-[1-(3-fluorooxan-4-yl)-3-(4-fluorophenyl)-1H-pyrazol-4-yl]-6-phenylfuro[2,3-d]pyrimidine], the IC50 in the test with BaF3_EGFR d19/CS cells (setting [2]) was found to be 0.0576 µM; in test [1], 0.00026 µM; with BaF3_EGFR LR/CS cells (setting [3]), 0.0307 µM; in the test with Ba/F3_EGFR WT cells (setting [4]), 1.77 µM.

As to `CS(=O)(=O)[C@@H]1CC[C@H](n2cc(-c3ncnc4oc(-c5ccccc5)cc34)c(-c3ccc(F)cc3)n2)C1` (racemic) [Example 185, 4-{3-(4-fluorophenyl)-1-[3-(methanesulfonyl)cyclopentyl]-1H-pyrazol-4-yl}-6-phenylfuro[2,3-d]pyrimidine], the IC50 with BaF3_EGFR d19/CS cells (setting [2]) stood at 0.395 µM; in test [1], 0.00143 µM; with BaF3_EGFR LR/CS cells (setting [3]), 0.256 µM; in the test with Ba/F3_EGFR WT cells (setting [4]) it was 6.98 µM.

As for `C[C@@H]1OCC[C@H]1n1cc(-c2ncnc3oc(-c4ccccc4)cc23)c(-c2ccc(F)cc2)n1` (racemic) [Example 199, 2,5-anhydro-1,3,4-trideoxy-3-[3-(4-fluorophenyl)-4-(6-phenylfuro[2,3-d]pyrimidin-4-yl)-1H-pyrazol-1-yl]pentitol], the IC50 in the test with BaF3_EGFR d19/CS cells (setting [2]) stood at 0.294 µM; in test [1], 0.00092 µM; in the test on BaF3_EGFR LR/CS cells (setting [3]), 0.0854 µM; with Ba/F3_EGFR WT cells (setting [4]) it was 3.34 µM.

In the case of `CC1(C)CC(n2cc(-c3ncnc4oc(-c5ccccc5)cc34)c(-c3ccc(F)cc3)n2)CO1` (racemic) [Example 227, 4-[1-(5,5-dimethyloxolan-3-yl)-3-(4-fluorophenyl)-1H-pyrazol-4-yl]-6-phenylfuro[2,3-d]pyrimidine], the IC50 with BaF3_EGFR d19/CS cells (setting [2]) came out at 0.0423 µM; in test [1], 0.00063 µM; in the test with BaF3_EGFR LR/CS cells (setting [3]), 0.0533 µM; in the test on Ba/F3_EGFR WT cells (setting [4]), 2.67 µM.

Take `O=S1(=O)CCC[C@H](Cn2cc(-c3ncnc4oc(-c5ccccc5)cc34)c(-c3ccc(F)cc3)n2)C1` (single isomer, unassigned) [Example 125]: the IC50 in the test on BaF3_EGFR d19/CS cells (setting [2]) stood at 0.0521 µM; in test [1], 0.00021 µM; with BaF3_EGFR LR/CS cells (setting [3]) it was 0.0118 µM; in the test on Ba/F3_EGFR WT cells (setting [4]), 0.741 µM.

Turning to `O=S1(=O)CCC[C@@H](Cn2cc(-c3ncnc4oc(-c5ccccc5)cc34)c(-c3ccc(F)cc3)n2)C1` (single isomer, unassigned) [Example 126], the IC50 with BaF3_EGFR d19/CS cells (setting [2]) was determined as 0.0582 µM; in test [1] it was 0.00018 µM; with BaF3_EGFR LR/CS cells (setting [3]), 0.0146 µM; with Ba/F3_EGFR WT cells (setting [4]), 0.72 µM.

For `Fc1ccc(-n2nccc2-c2ccnc3[nH]c(-c4ccccc4)cc23)cc1` [Example 1, 4-[1-(4-fluorophenyl)-1H-pyrazol-5-yl]-2-phenyl-1H-pyrrolo[2,3-b]pyridine], the IC50 in the test on BaF3_EGFR d19/CS cells (setting [2]) was found to be 0.211 µM; in the test with BaF3_EGFR LR/CS cells (setting [3]) it was 0.349 µM; with Ba/F3_EGFR WT cells (setting [4]), 2.57 µM.

`OCCCc1nc(-c2ccnc3[nH]c(-c4ccccc4)cc23)n(-c2ccc(F)cc2)n1` [Example 2, 3-[1-(4-Fluorophenyl)-5-(2-phenyl-1H-pyrrolo[2,3-b]pyridin-4-yl)-1H-1,2,4-triazol-3-yl]propan-1-ol]: the IC50 stood at 0.104 µM in the test with BaF3_EGFR d19/CS cells (setting [2]), 0.0895 µM with BaF3_EGFR LR/CS cells (setting [3]) and 0.724 µM in the test with Ba/F3_EGFR WT cells (setting [4]).

As to `OCCCn1cc(-c2ccnc3cc(-c4ccccc4)[nH]c23)c(-c2ccc(F)cc2)n1` [Example 7, 3-[3-(4-Fluorophenyl)-4-(2-phenyl-1H-pyrrolo[3,2-b]pyridin-7-yl)-1H-pyrazol-1-yl]propan-1-ol], the IC50 in the test on BaF3_EGFR d19/CS cells (setting [2]) was determined as 0.508 µM; in the test with BaF3_EGFR LR/CS cells (setting [3]), 0.694 µM; with Ba/F3_EGFR WT cells (setting [4]), 4.71 µM.

As to `[2H]C([2H])([2H])n1cc(-c2ncnc3oc(-c4ccccc4)cc23)c(-c2ccc(F)cc2)n1` [Example 48, 4-[3-(4-Fluorophenyl)-1-(2H3)methyl-1H-pyrazol-4-yl]-6-phenylfuro[2,3-d]pyrimidine], the IC50 is 0.0479 µM in the test with BaF3_EGFR d19/CS cells (72 h), 0.0604 µM in the test on BaF3_EGFR LR/CS cells (72 h) and 2.21 µM with Ba/F3_EGFR WT cells (72 h).

In the case of `Cn1cc(-c2ncnc3oc(-c4ccccc4)cc23)c(-c2ccc(F)cc2)n1` [Example 63, 4-[3-(4-Fluorophenyl)-1-methyl-1H-pyrazol-4-yl]-6-phenylfuro[2,3-d]pyrimidine], the IC50 with BaF3_EGFR d19/CS cells (72 h) stood at 0.0485 µM; in the test with BaF3_EGFR LR/CS cells (72 h) it was 0.0354 µM; in the test on Ba/F3_EGFR WT cells (72 h), 1.27 µM.

Turning to `O=S1(=O)CCC(n2cc(-c3ncnc4oc(-c5ccccc5)cc34)c(-c3ccc(F)cc3)n2)CC1` [Example 83, 4-[3-(4-fluorophenyl)-4-(6-phenylfuro[2,3-d]pyrimidin-4-yl)-1H-pyrazol-1-yl]-1λ6-thiane-1,1-dione], the IC50 was 0.64 µM with BaF3_EGFR d19/CS cells (setting [2]), 0.529 µM in the test with BaF3_EGFR LR/CS cells (setting [3]) and over 20 µM with Ba/F3_EGFR WT cells (setting [4]).

Consider `Fc1ccc(-c2nn(CCOC(F)(F)F)cc2-c2ncnc3oc(-c4ccccc4)cc23)cc1` [Example 144, 4-{3-(4-Fluorophenyl)-1-[2-(trifluoromethoxy)ethyl]-1H-pyrazol-4-yl}-6-phenylfuro[2,3-d]pyrimidine], for which the IC50 is 0.0896 µM in the test with BaF3_EGFR d19/CS cells (setting [2]), 0.0336 µM in the test on BaF3_EGFR LR/CS cells (setting [3]) and 1.61 µM in the test on Ba/F3_EGFR WT cells (setting [4]).

Regarding `Fc1ccc(-c2nn(CCC(F)F)cc2-c2ccnc3oc(-c4ccccc4)cc23)cc1` [Example 157, 4-[1-(3,3-difluoropropyl)-3-(4-fluorophenyl)-1H-pyrazol-4-yl]-2-phenylfuro[2,3-b]pyridine], the figures for the IC50 in the test on BaF3_EGFR d19/CS cells (setting [2]), with BaF3_EGFR LR/CS cells (setting [3]) and in the test on Ba/F3_EGFR WT cells (setting [4]) were 0.0408 µM, 0.0152 µM and 1.59 µM, respectively.

`O=S1(=O)CC(n2cc(-c3ncnc4oc(C5=CCN(S(=O)(=O)C6CC6)CC5)cc34)c(-c3ccc(F)cc3)n2)C1` [Example 177, 3-[4-{6-[1-(cyclopropanesulfonyl)-1,2,3,6-tetrahydropyridin-4-yl]furo[2,3-d]pyrimidin-4-yl}-3-(4-fluorophenyl)-1H-pyrazol-1-yl]-1λ6-thietane-1,1-dione]: the IC50 in the test on BaF3_EGFR d19/CS cells (setting [2]) came to 0.0564 µM; with BaF3_EGFR LR/CS cells (setting [3]), 0.042 µM; in the test with Ba/F3_EGFR WT cells (setting [4]), 1.59 µM.

Source of the values: patent US20250034159A1, “INHIBITORS OF EPIDERMAL GROWTH FACTOR RECEPTOR” (ORIC Pharmaceuticals, Inc., priority 2021, published 2025).
